In general, IC50 refers to the concentration at which inhibition is half-maximal. High values mean a need for much substance, low ones inhibition by little substance. What is called GI50 is the concentration that inhibits growth by half.

The subject of data set [1] is 184B5 non-tumorigenic breast (mammary gland) cells. Nature of the data set: MTT cell viability assay, 184B5. Conditions: mean ± SD; for IC50: nonmalignant breast cells. It is filed as cell-based. The method, then: (§1) The cell lines were purchased from the American Type Culture Collection (ATCC). The cancer cell lines DU-145, PC-3, T-47D, MDA-MB-231, H1299, and A549, and the non-tumorigenic cells (184B5 and BEAS-2B), were maintained in RPMI 1640 medium (Gibco, Alcobendas, Madrid, Spain) supplemented with 10% fetal bovine serum (FBS; Gibco) and 1% antibiotics (10.00 units/mL penicillin and 10.00 mg/mL streptomycin; Gibco). Colon cancer cells HT-29 and HCT-116 were cultured in McCoy’s 5A medium (Gibco) supplemented with 10% fetal bovine serum (FBS; Gibco) and 1% antibiotics (10.00 units/mL penicillin and 10.00 mg/mL streptomycin; Gibco). Cells were maintained in tissue culture flasks at 37 °C and 5% CO2. The culture medium was replaced every three days.
(§2) The antiproliferative activity and selectivity in vitro of the Se-NSAID derivatives were determined by the (3-(4,5-dimethylthiazol-2-yl)-2,5-diphenyltetrazolium bromide) (MTT) assay. Compounds were dissolved in DMSO at a concentration of 0.01 M and serial dilutions were prepared. The Se-NSAID derivatives were tested at seven concentrations ranging between 1 and 100 µM in the colon (HT-29 and HCT-116), prostate (DU-145 and PC-3), breast (MDA-MB-231 and T-47D), and lung (H1299 and A549) cancer cell lines. The non-tumorigenic breast (184B5) and lung (BEAS-2B) cell lines were also tested to assess the selectivity of the compounds following the same procedure. A total of 1 × 10^4 cells were seeded per well in 96-well plates and incubated at 5% CO2 and 37 °C for 24 h. Then, cells were treated with either DMSO or increasing concentrations of the corresponding Se-NSAID derivatives for 48 h. A volume of 20 µL of MTT (5 mg/mL) was added to each well 2.5 h before the termination point. At the end of the experiment, the medium was removed, and the resultant formazan crystals formed by mitochondrial reduction of MTT were dissolved in 50 µL of DMSO. Absorbance was measured at 550 nm. IC50, GI50, TGI, and LC50 values were calculated using OriginPro version 8.5.1. software by nonlinear curve fitting. Selectivity indexes (SI) were calculated as the ratio of the IC50 values determined for the nonmalignant and the tumoral cells in the breast (IC50 (184B5)/IC50 (MDA-MB-231) and IC50 (184B5)/IC50 (T-47D)) and lung (IC50 (BEAS-2B)/IC50 (H1299) and IC50 (BEAS-2B)/IC50 (A549)) cell lines. Data were obtained from at least three independent experiments performed in triplicates.

For data set [2], the system named is HT-29 colon cancer cells. Nature of the data set: MTT cell viability assay, HT-29. It is filed as cell-based. Conditions: mean ± SD. The method, then: as §1, §2
Background: Tetrazolium dyes change colour on reduction, which living cells bring about.

For data set [3], the system named is T-47D breast cancer cells. Nature of the data set: MTT cell viability assay, T-47D. In kind it is cell-based. The conditions noted are these: 48 h, mean ± SD. The method, then: as §1, §2
In data set [4] the test system is A549 lung cancer cells. Nature of the data set: MTT cell viability assay, A549. The conditions noted are these: Homo sapiens, A549, 48 h, mean ± SD. In kind it is cell-based. The method, then:
as §1, §2

The test system of data set [5] is HCT-116 cells. Nature of the data set: Caspase 3/7 apoptosis assay. In kind it is cell-based. The conditions noted are these: HCT-116, 24 h. The method, then: The capacity of the Se-NSAID derivatives to induce apoptosis was analyzed using both a Caspase 3/7 assay kit and Annexin V & Dead Cell assay kit (EMD Millipore, Darmstadt, Germany). HCT-116 cells were seeded in 6-well plates at a density of 5 × 10^5 cells per well. Cells were treated either with DMSO (control) or with different concentrations of compound 5 and incubated for 24 h. At the end of the treatment, cells were collected and treated with the respective dyes according to the manufacturer’s protocol. For the Caspase 3/7 assay, cells were stained with 5 µL of Muse™ Caspase 3/7 working solution and incubated at 37 °C for 30 min. After incubation, […] of Muse™ Caspase 7-AAD working solution was added and the samples were incubated for another 5 min in the dark at room temperature prior to analysis. For Annexin V assay, cells were stained with 100 µL pf Muse™ Annexin V & Dead Cell Reagent and incubated for 20 min at room temperature in the dark. Samples for both assays were analyzed on a Muse™ Cell Analyzer (Merck Millipore, Darmstadt, Germany) using Muse™ version 1.4. software.

Data set [6] deals with HCT-116 colon cancer xenograft. Nature of the data set: Tumor growth inhibition on HCT-116 colon cancer xenograft model. The conditions noted are these: 10 mg/Kg IP. It is filed as in vivo. The method, then: Female mice of 4–5 weeks of age (The Jackson Laboratory, Bar Harbor, ME, USA) were kept on the daily cycle of 12 h light/dark and received food and water ad libitum throughout the studies. All animal procedures were performed following the National Institutes of Health (NIH) Guide for the Care and Use of Laboratory Animals and protocols were approved by the Animal Care and Use Committee of the Penn State College of Medicine.
All mice were housed in quarantine for one week prior to the inoculation of the cancer cells. Female nude mice (4–5 weeks old) were subcutaneously injected (100 µL of PBS/flank) with 2.5 × 10^6 HCT-116 colon cancer cells in each flank. Two weeks after inoculation, mice were sorted randomly into treatment and control groups (five mice/group) such that the mean tumor volumes were similar between groups. […] Mice that were injected with only DMSO (vehicle) were used as negative controls. The body weight of animals and the tumor volume were monitored thrice weekly. Tumor volumes were calculated using the formula (L × W^2)/2, wherein L and W are the length and width of the tumor mass measured with a vernier caliper, respectively. At the end of the experiment, mice were sacrificed by euthanizing the animals by CO2 asphyxiation, and the tumors were excised and weighed. Inspection of major morphological changes in organs was also carried out. The antitumor effect was assessed by the tumor growth inhibition (TGI) and the relative increment ratio (T/C) parameters in the aspects of tumor volume and tumor weight, respectively. The TGI was calculated using the following formula: TGI (%) = [1 − (T − T0)/(C − C0)] × 100, wherein T and C are the final tumor volumes measured at the end of the treatment of compound-treated mice and vehicle-treated mice, respectively, whereas T0 and C0 are the tumor volumes measured at the beginning of the treatment of compound-treated mice and vehicle-treated mice, respectively. The T/C value was calculated as WT/WC × 100, wherein WT is the mean of tumor weight of the compound-treated mice, and WC is the mean of tumor weight of the vehicle-treated mice.

The mark [7] stands for this setting: in vitro TGI concentration, 48 h, Table S1.

SMILES strings stand for the structures.

For the molecule `CC(C)Cc1ccc(C(C)C(=O)[Se][Se]C(=O)C(C)c2ccc(CC(C)C)cc2)cc1` (stereo not shown) [Compound 5, 2-(4-Isobutylphenyl)propanoic diselenoperoxyanhydride], the IC50 in data set [1] (48 h) was 18.2 ± 0.8 µM; in data set [1] (Homo sapiens, 184B5, 48 h) it was 14 to 19 µM; in data set [2] (Homo sapiens, HT-29, 48 h) it was 8.5 ± 2.7 µM; in data set [3] (Homo sapiens, T47D), 3.8 ± 0.2 µM; in data set [4], 4.5 ± 0.6 µM. The GI50 in data set [1] (Homo sapiens, 184B5, 48 h, Table S1) was 6.6 ± 1.5 µM; in data set [2] (Homo sapiens, HT-29, 48 h, Table S1), 4.8 ± 1 µM; in data set [3] (Homo sapiens, T47D, Table S1), 1.8 ± 0.4 µM; in data set [4] (Table S1) it was 2.3 ± 0.2 µM. Also, in data set [1] (setting [7]), the “TGI 184B5” value was 11.1 ± 1.4 µM. For the same molecule, the “TGI HT-29” value in data set [2] (setting [7]) is 7.2 ± 1.8 µM. The “LD50 T-47D” value in data set [3] (Table S1) came out at 4.2 ± 0.3 µM. For the same molecule, in data set [3] (in vitro TGI concentration, Table S1), the “TGI T-47D” value is listed as 2.7 ± 0.3 µM. The Dead cells in data set [5] (Caspase 3/7 assay, 25 μM) is on record as ~ 11%. Further, in data set [5] (2.5 to 25 µM, result in words), the “caspase 3/7 activity” value was “no clear enhancement”. For the same molecule, the “TGI (tumor growth inhibition, tumor volume)” value in data set [6] (HCT-116 subcutaneous xenograft, female nude mice, 23 days of treatment, day 38, vs vehicle) is given as 72%. Moreover, the “T/C (relative increment ratio, tumor weight)” value in data set [6] (HCT-116 subcutaneous xenograft, female nude mice, end of treatment) stood at 38%. Also, the “body weight of the mice vs vehicle during treatment” value in data set [6] (HCT-116 xenograft mice) is given as “slight change”. The “toxicity signs (morphological abnormalities in major organs)” value in data set [6] (HCT-116 xenograft mice, end of experiment) is “no evident toxicity signs”.
